Experimental data taken from patent US10413545B2, “Imidazolin-5-one derivative useful as FASN inhibitors for the treatment of cancer” (Janssen Pharmaceutica NV, priority 2013, dated 2019).
Like-named read-outs stand apart in the source and are kept apart here.

Experiments:
Assay type in all cases: cell-based
A2780 ovarian cells = assay: A2780 Ovarian Cell Proliferation Assay in Lipid Reduced Medium, with and without Palmitate (MTT); details: Homo sapiens, 10% lipid-reduced serum, 96 h
Method: The biological assays described below correspond to comparative assays for ovarian cell proliferation.
2500 cells were seeded in a 96-well clear well plate in 200 μL RPM11640 with 10% Fetal Calf Serum (Hyclone), and incubated at 37° C., 5% CO2, Blanks were wells without cells. The next day the culture medium was aspirated and replaced by 160 μL culture medium with 10% Lipid-Reduced Serum (LRS, Hyclone). […] After 96 h incubation, an MTT assay was performed.
2500 cells were seeded in a 96-well clear well plate in 200 μL RPM11640 with 10% Fetal Calf Serum (Hyclone), and incubated at 37° C., 5% CO2. Blanks were wells without cells. The next day the culture medium was aspirated and replaced by 160 μL culture medium with 10% Lipid-Reduced Serum (LRS, Hyclone). 20 μL test compound (at concentrations of 30 μM, 10 μM, 3 μM, 1 μM, 0.30 μM, 0.10 μM, 0.03 μM and 0.01 μM)/DMSO dilution followed by 20 μL ethanol-BSA solution were added to a final concentrations of 0.2% DMSO, 0.2% fatty-acid-free BSA, 0.25% ethanol. After 96 h incubation an MTT assay was performed.
Raw data generated by the instrument were normalized to % Controlmin values, which were calculated as: % Controlmin=100*(x−mLC)/(mHC−mLC)
where mLC and mHC were the means of the low control wells and high control wells on the plate, after manual exclusion of outliers. A plot of Controlmin versus test compound concentration was fitted to a 4-parameter logistic curve using a non-linear least squares regression method.

[1] = tested on: LNCaP_Vancouver prostate cells; assay: In Vitro LNCaP Vancouver Prostate Cell Proliferation Assay in Lipid Reduced Medium; details: Prostate cell; 10% lipid reduced serum, 96 h, ATP-glow luminescence; read-out: pIC50 LNCaP_Vancouver prostate cell (converted)
Method: LNCaP_Vancouver prostate cells were obtained from the Vancouver Prostate Cancer Centre.
(§1) The next day 10 μl of test compound/DMSO diluted in medium was added (3E-5M, 1E-5M, 3E-6M,1E-6M, 3E-7M, 1E-7M, 3E-8M, 1E-8M final concentration). Compounds were tested in duplicate. After 96 h incubation at 37° C., 5% CO2 25 μl ATP-glow mix was added. The plate was incubated for 30 min at 37° C. and luminescence was measured with the Envision.
(§2) Analysis: Determination of pIC50 Values
(§3) pIC50 values were calculated as follows. Raw data generated by the instruments were normalized to % Controlmin values, which were calculated as: % Controlmin=100*(x−mLC)/(mHC−mLC),
(§4) where mLC and mHC are the means of the low control wells and high control wells on the plate, after manual exclusion of outliers. The relation between the % Controlmin values and concentration was fitted to a 4-parameter logistic curve using a non-linear least squares regression method to determine the pIC50 value. Outlying data points were excluded manually to get a correct fit. The pIC50 corresponds to −log 10(IC50), if the IC50 is expressed in molar units (http://www.ncbi.nlm.nih.qovibooks/NBK91994). The IC50 parameter was always determined by non-linear regression, but one or more of the other parameters may have been held fixed on a relevant input value, such as 0 for the bottom values.

[2] = tested on: PC-3M-Luc-C6 prostate cells; assay: In Vitro PC-3M-Luc-C6 Prostate Cell Proliferation Assay in Lipid Reduced Medium; details: Prostate cell, read-out: pIC50 PC-3M-Luc-C6 prostate cell (converted); 10% lipid reduced serum, 96 h, ATP-glow luminescence
Method: PC-3M-Luc-C6 prostate cells were obtained from Xenogen Corporation. Cells were maintained in MEM supplemented with 10% Fetal Calf Serum (FCS, Hyclone), 2 mM glutamine, 1 mM sodium pyruvate, 1% BME vitamins (available from for example, Sigma Aldrich), 0.1 mM non Essential Amino Acid and 50 μg/ml Gentamicin. The cells were passaged twice a week.
as §1, with “μl” for “μl of”
as §2, §3, §4

[3] = 25 μM palmitate added (control), read-out: pIC50 With Palmitate (converted)
[4] = no palmitate, read-out: pIC50 Without Palmitate (converted)

SMILES | IC50 (A2780 ovarian cells; [3]) [nM] | IC50 (A2780 ovarian cells; [4]) [nM] | IC50 [1] [nM] | IC50 [2] [nM]
CC1(c2ccccc2)N=C(c2ccc(-c3ccc4occc4c3)cc2)N(C[C@@H]2CCN(C(=O)C3CC3)C2)C1=O (mixture of isomers) [Compound 5, (4RS)-2-(4-(Benzofuran-5-yl)phenyl)-1-(((R)-1-(cyclopropanecarbonyl)pyrrolidin-3-yl)methyl)-4-methyl-4-phenyl-1H-imidazol-5(4H)-one] | > 10000 | 2000 | 4370 | ~1860
Cn1ncc2cc(-c3ccc(C4=NC(C)(c5ccccc5)C(=O)N4C[C@@H]4CCN(C(=O)C5CC5)C4)cc3)ccc21 (mixture of isomers) [Compound 6, (4RS)-1-(((R)-1-(cyclopropanecarbonyl)pyrrolidin-3-yl)methyl)-4-methyl-2-(4-(1-methyl-1H-indazol-5-yl)phenyl)-4-phenyl-1H-imidazol-5(4H)-one] | > 10000 | 363 | 1820 | 501
CC1(c2ccccc2)N=C(c2ccc(-c3ccc4[nH]ccc4c3)cc2)N(C[C@@H]2CCN(C(=O)C3CC3)C2)C1=O (mixture of isomers) [Compound 7, (4RS)-2-(4-(1H-Indol-5-yl)phenyl)-1-(((R)-1-(cyclopropanecarbonyl)pyrrolidin-3-yl)methyl)-4-methyl-4-phenyl-1H-imidazol-5(4H)-one] | > 10000 | 132 | 234 | 74.1
COCC1(C)N=C(c2ccc(-c3ccc4occc4c3)cc2)N(C[C@@H]2CCN(C(=O)C3CC3)C2)C1=O (mixture of isomers) [Compound 8, (4RS)-2-(4-(Benzofuran-5-yl)phenyl)-1-(((R)-1-(cyclopropanecarbonyl)pyrrolidin-3-yl)methyl)-4-(methoxymethyl)-4-methyl-1H-imidazol-5(4H)-one] | > 10000 | 1150 | 2570 | 1290
CC1(C2CC2)N=C(c2ccc(-c3ccc4occc4c3)cc2)N(C[C@@H]2CCN(C(=O)C3CC3)C2)C1=O (mixture of isomers) [Compound 9, (4RS)-2-(4-(Benzofuran-5-yl)phenyl)-1-(((R)-1-(cyclopropanecarbonyl)pyrrolidin-3-yl)methyl)-4-cyclopropyl-4-methyl-1H-imidazol-5(4H)-one] | > 10000 | ~1910 | 2040 | 1620
COCC1(C)N=C(c2ccc(-c3ccc4c(cnn4C)c3)cc2)N(C[C@@H]2CCN(C(=O)C3CC3)C2)C1=O (mixture of isomers) [Compound 10, (4RS)-1-(((R)-1-(cyclopropanecarbonyl)pyrrolidin-3-yl)methyl)-4-(methoxymethyl)-4-methyl-2-(4-(1-methyl-1H-indazol-5-yl)phenyl)-1H-imidazol-5(4H)-one] | > 10000 | ~741 | 3630 | 933
CC1(C)N=C(c2ccc(-c3nc4ccccc4o3)cc2)N(C[C@@H]2CCN(C(=O)C3CC3)C2)C1=O [Compound 11, (R)-2-(4-(benzo[d]oxazol-2-yl)phenyl)-1-((1-(cyclopropanecarbonyl)pyrrolidin-3-yl)methyl)-4,4-dimethyl-1H-imidazol-5(4H)-one] | > 10000 | 3720 | ~10000 | ~2000
CC1(C)N=C(c2ccc(-c3ccc(-c4ccncc4)cc3)cc2)N(C[C@@H]2CCN(C(=O)C3CC3)C2)C1=O [Compound 15, (R)-1-((1-(cyclopropanecarbonyl)pyrrolidin-3-1)methyl)-4,4-dimethyl-2-(4′-(pyridin-4-yl)-[1,1′-biphenyl]-4-yl)-1H-imidazol-5(4H)-one] | > 10000 | 178 | 759 | 158
Cn1cc(-c2ccc(-c3ccc(C4=NC(C)(C)C(=O)N4C[C@@H]4CCN(C(=O)C5CC5)C4)cc3)cc2)cn1 [Compound 16, (R)-1-((1-(cyclopropanecarbonyl)pyrrolidin-3-yl)methyl)-4,4-dimethyl-2-(4′-(1-methyl-1H-pyrazol-4-yl)-[1,1′-biphenyl]-4-yl)-1H-imidazol-5(4H)-one] | > 10000 | 186 | 331 | 174
Cn1cc(-c2ccc(-c3ccc(C4=NC(C)(C)C(=O)N4CC4CN(C(=O)C5CC5)C4)cc3)cc2)cn1 [Compound 17, 1-((1-(cyclopropanecarbonyl)azetidin-3-yl)methyl)-4,4-dimethyl-2-(4′-(1-methyl-1H-pyrazol-4-yl)-[1,1′-biphenyl]-4-yl)-1H-imidazol-5(4H)-one] | > 10000 | 2510 | 8910 | 1820
CC1(C)N=C(c2ccc(-c3ccc(-c4ccncc4)cc3)cc2F)N(CC2CN(C(=O)C3CC3)C2)C1=O [Compound 22, 1-((1-(cyclopropanecarbonyl)azetidin-3-yl)methyl)-2-(3-fluoro-4′-(pyridin-4-yl)-[1,1′-biphenyl]-4-yl)-4,4-dimethyl-1H-imidazol-5(4H)-one] | > 10000 | ~269 | 813 | 224
CC1(C)N=C(c2ccc(-c3ccc4cccnc4c3)cc2)N(C[C@@H]2CCN(C(=O)C3CC3)C2)C1=O [Compound 23] | > 10000 | 75.9 | 219 | 53.7
CC1(C)N=C(c2ccc(-c3ccc4cccnc4c3)cc2)N(CC2CN(C(=O)C3CC3)C2)C1=O [Compound 24, 1-((1-(cyclopropanecarbonyl)azetidin-3-yl)methyl)-4,4-dimethyl-2-(4-(quinolin-7-yl)phenyl)-1H-imidazol-5(4H)-one] | > 10000 | ~363 | 1450 | 447
CC1(C)N=C(c2ccc(-c3cnc4ccccc4c3)cc2)N(C[C@@H]2CCN(C(=O)C3CC3)C2)C1=O [Compound 25, (R)-1-((1-(cyclopropanecarbonyl)pyrrolidin-3-yl)methyl)-4,4-dimethyl-2-(4-(quinolin-3-yl)phenyl)-1H-imidazol-5(4H)-one] | > 10000 | 1170 | 2880 | 891
CC1(C)N=C(c2ccc(-c3ccc(-c4ccncc4)cc3)cc2)N(CC2CN(C(=O)C3CC3)C2)C1=O [Compound 26, 1-((1-(cyclopropanecarbonyl)azetidin-3-yl)methyl)-4,4-dimethyl-2-(4′-(pyridin-4-yl)-[1,1′-biphenyl]-4-yl)-1H-imidazol-5(4H)-one] | > 10000 | 1950 | 3390 | 1000
CC1(C)N=C(c2ccc(-c3ccc4cnccc4c3)cc2)N(CC2CN(C(=O)C3CC3)C2)C1=O [Compound 27, 1-((1-(cyclopropanecarbonyl)azetidin-3-yl)methyl)-2-(4-(isoquinolin-6-yl)phenyl)-4,4-dimethyl-1H-imidazol-5(4H)-one] | > 10000 | ~316 | 1380 | 324
CC1(C)N=C(c2ccc(-c3ccc4cnccc4c3)cc2)N(C[C@@H]2CCN(C(=O)C3CC3)C2)C1=O [Compound 28] | > 10000 | 58.9 | 1580 | 63.1
